These results are taken from BindingDB's records for doi:10.1016/s0968-0896(00)00026-2 (Alcon Research, 2000).

Counter-ions that a name gives are not always drawn.

The target of the first test is Carbonic anhydrase 2 (Homo sapiens, UniProt P00918). Kind of test: In vitro binding of inhibitor to hCA-II.
Conditions: not given
The procedure: Inhibitor binding to CA II was determined using a fluorescence competition assay. Displacement of dansylamide and binding of the inhibitor was determined by measuring and comparing the average fluorescence intensities of the treated versus control reactions. Binding constants were estimated from a Dixon plot of the data (reciprocal of the average fluorescence intensity versus inhibitor concentration)
`C#CCNCC1=Cc2cc(S(N)(=O)=O)sc2S(=O)(=O)N1CCC` [1,1-dioxo-3-[(prop-2-yn-1-ylamino)methyl]-2-propyl-2H-1,7,2-thieno[3,2-e][1,2]thiazine-6-sulfonamide] displayed a Ki of 0.1 nM. This counts as sub-nanomolar. Same read-out and setting: the value for `C#CCNCC1=Cc2cc(S(N)(=O)=O)sc2S(=O)(=O)N1c1cccc(O)c1` [2-(3-hydroxyphenyl)-1,1-dioxo-3-[(prop-2-yn-1-ylamino)methyl]-2H-1,7,2-thieno[3,2-e][1,2]thiazine-6-sulfonamide hydrochloride] was 0.16 nM; that for `NS(=O)(=O)c1cc2c(s1)S(=O)(=O)N(CC1CC1)C(CN1CCOCC1)=C2` [2-(cyclopropylmethyl)-3-(morpholin-4-ylmethyl)-1,1-dioxo-2H-1,7,2-thieno[3,2-e][1,2]thiazine-6-sulfonamide hydrochloride] was 0.3 nM.

`C=CCN1C(CN2CCOCC2)=Cc2cc(S(N)(=O)=O)sc2S1(=O)=O` [3-(morpholin-4-ylmethyl)-1,1-dioxo-2-(prop-2-en-1-yl)-2H-1,7,2-thieno[3,2-e][1,2]thiazine-6-sulfonamide] yielded a Ki of 0.16 nM. Same read-out and setting: next, `COCCCN1C(CNC2CC2)=Cc2cc(S(N)(=O)=O)sc2S1(=O)=O` [3-[(cyclopropylamino)methyl]-2-(3-methoxypropyl)-1,1-dioxo-2H-1,7,2-thieno[3,2-e][1,2]thiazine-6-sulfonamide hydrochloride]: 0.26 nM; `COc1cccc(N2C(CNCCO)=Cc3cc(S(N)(=O)=O)sc3S2(=O)=O)c1` [3-{[(2-hydroxyethyl)amino]methyl}-2-(3-methoxyphenyl)-1,1-dioxo-2H-1,7,2-thieno[3,2-e][1,2]thiazine-6-sulfonamide hydrochloride]: 0.11 nM. Molecule `CCCN1C(CN(CCOC)CCOC)=Cc2cc(S(N)(=O)=O)sc2S1(=O)=O` [3-{[bis(2-methoxyethyl)amino]methyl}-1,1-dioxo-2-propyl-2H-1,7,2-thieno[3,2-e][1,2]thiazine-6-sulfonamide hydrochloride] returned a Ki of 0.15 nM.

On to `CCN1C(CN(CCO)CCO)=Cc2cc(S(N)(=O)=O)sc2S1(=O)=O` [Compound 17b4], for which the affinity corresponds to a Ki of 0.33 nM.

Turning to `CCCN1C(CN2CCOCC2)=Cc2cc(S(N)(=O)=O)sc2S1(=O)=O` [Compound 17c1], the Ki worked out at 0.27 nM. Regarding `CC(C)N1C(CN2CCOCC2)=Cc2cc(S(N)(=O)=O)sc2S1(=O)=O` [Compound 17d1], the affinity, expressed as Ki, was 0.33 nM. The Ki values of the last two molecules are within 1.5-fold of each other. On the same count and under the same terms, next, `C#CCNCC1=Cc2cc(S(N)(=O)=O)sc2S(=O)(=O)N1C(C)C` [Compound 17d8]: 0.47 nM. Still for that read-out and setting: next, `NS(=O)(=O)c1cc2c(s1)S(=O)(=O)N(C1CCCCC1)C(CN1CCOCC1)=C2` [Compound 17g1]: 0.31 nM. Same read-out and setting: the value for `COCCN1C(CN2CCOCC2)=Cc2cc(S(N)(=O)=O)sc2S1(=O)=O` [Compound 17h1] was 0.22 nM. With `COCCN(CCOC)CC1=Cc2cc(S(N)(=O)=O)sc2S(=O)(=O)N1CCOC` [Compound 17h2], the Ki came to 0.21 nM. Same read-out and setting: next, `COCCCN1C(CN2CCOCC2)=Cc2cc(S(N)(=O)=O)sc2S1(=O)=O` [Compound 17i1]: 0.25 nM; `COCCCN1C(Cn2ccnc2)=Cc2cc(S(N)(=O)=O)sc2S1(=O)=O` [Compound 17i10]: 0.12 nM. On the same count and under the same terms, next, `COc1ccc(CN2C(CN3CCOCC3)=Cc3cc(S(N)(=O)=O)sc3S2(=O)=O)cc1` [Compound 17j1]: 0.11 nM; `COc1ccc(N2C(CN3CCOCC3)=Cc3cc(S(N)(=O)=O)sc3S2(=O)=O)cc1OC` [Compound 17m1]: 0.08 nM. Still for that read-out and setting: next, `NS(=O)(=O)c1cc2c(s1)S(=O)(=O)N(c1ccc(N3CCOCC3)cc1)C(CN1CCOCC1)=C2` [Compound 17n1]: 0.12 nM.

`NS(=O)(=O)c1cc2c(s1)S(=O)(=O)N(CCCO)C(CN1CCOCC1)=C2` [Compound 17o1] displayed a Ki of 0.2 nM. Take `CN1C(CN2CCOCC2)=Cc2sc(S(N)(=O)=O)cc2S1(=O)=O` [Compound 25]: the affinity, expressed as Ki, was 0.21 nM.

Still in this test, the particulars now being: pH 7.4; 37 °C.
For `COc1cccc(N2C(CN3CCOCC3)=Cc3cc(S(N)(=O)=O)sc3S2(=O)=O)c1` [2-(3-Methoxyphenyl)-3-[(4-morpholinyl)methyl]-2H-thieno-[3,2-e]-1,2-thiazine-6-sulfonamide 1,1-dioxide], the affinity corresponds to a Ki of 0.15 nM. On the same count and under the same terms, the value for `CCN1C(CN2CCOCC2)=Cc2cc(S(N)(=O)=O)sc2S1(=O)=O` [2-Ethyl-3-[(4-morpholinyl)methyl]-2H-thieno[3,2-e]-1,2-thiazine-6-sulfonamide 1,1-dioxide hydrochloride] was 0.21 nM; that for `CCN1C(CN(CCOC)CCOC)=Cc2cc(S(N)(=O)=O)sc2S1(=O)=O` [2-Ethyl-3-[[bis(2-methoxyethyl)amino]methyl]-2H-thieno-[3,2-e]-1,2-thiazine-6-sulfonamide 1,1-dioxide hydrochloride] was 0.21 nM; that for `CCCNCCN1C=Cc2cc(S(N)(=O)=O)sc2S1(=O)=O` [2-[2-(Propylamino)ethyl]-2H-thieno[3,2-e]-1,2-thiazine-6-sulfonamide 1,1-dioxide hydrochloride] was 0.52 nM. In the case of `NS(=O)(=O)c1cc2c(s1)S(=O)(=O)N(C/C=C/CN1CCOCC1)C=C2` [2-[(2E)-4-(morpholin-4-yl)but-2-en-1-yl]-1,1-dioxo-2H-1,7,2-thieno[3,2-e][1,2]thiazine-6-sulfonamide hydrochloride], affinity was put at a Ki of 0.24 nM. The same measure, in the same setting: the value for `CN1C(CN2CCOCC2)=Cc2cc(S(N)(=O)=O)sc2S1(=O)=O` [2-methyl-3-(morpholin-4-ylmethyl)-1,1-dioxo-2H-1,7,2-thieno[3,2-e][1,2]thiazine-6-sulfonamide hydrochloride] was 0.26 nM; that for `COCCN(CCOC)CCN1C=Cc2cc(S(N)(=O)=O)sc2S1(=O)=O` [2-{2-[bis(2-methoxyethyl)amino]ethyl}-1,1-dioxo-2H-1,7,2-thieno[3,2-e][1,2]thiazine-6-sulfonamide hydrochloride] was 0.34 nM; that for `COCCN(C)CC1=Cc2cc(S(N)(=O)=O)sc2S(=O)(=O)N1C` [3-[N-(2-Methoxyethyl)-N-methylamino]methyl]-2-methyl-2H-thieno[3,2-e]-1,2-thiazine-6-sulfonamide 1,1-dioxide] was 0.15 nM.

As for `COCCCN(CCOC)CC1=Cc2cc(S(N)(=O)=O)sc2S(=O)(=O)N1C` [3-{[(2-methoxyethyl)(3-methoxypropyl)amino]methyl}-2-methyl-1,1-dioxo-2H-1,7,2-thieno[3,2-e][1,2]thiazine-6-sulfonamide hydrochloride], affinity was put at a Ki of 0.08 nM. The same measure, in the same setting: next, `NS(=O)(=O)c1cc2c(s1)S(=O)(=O)N(CCN1CCOCC1)C=C2` [Compound 5b]: 0.32 nM; `CC(=O)N1CCN(CCN2C=Cc3cc(S(N)(=O)=O)sc3S2(=O)=O)CC1` [Compound 5c]: 0.25 nM. Still for that read-out and setting: the value for `C=CCN(CCOC)CC1=Cc2cc(S(N)(=O)=O)sc2S(=O)(=O)N1C` [Compound 17a7] was 0.1 nM.
